The structures appear in SMILES notation. A value given as a limit tells only on which side of the number the result lay.

One assay has as its target T1, human EHMT2 913-1193 (Homo sapiens, UniProt Q96KQ7).
T1 construct: recombinant purified human EHMT2 913-1193, Viva; purchased Viva
T1 sequence (Q96KQ7 913-1193): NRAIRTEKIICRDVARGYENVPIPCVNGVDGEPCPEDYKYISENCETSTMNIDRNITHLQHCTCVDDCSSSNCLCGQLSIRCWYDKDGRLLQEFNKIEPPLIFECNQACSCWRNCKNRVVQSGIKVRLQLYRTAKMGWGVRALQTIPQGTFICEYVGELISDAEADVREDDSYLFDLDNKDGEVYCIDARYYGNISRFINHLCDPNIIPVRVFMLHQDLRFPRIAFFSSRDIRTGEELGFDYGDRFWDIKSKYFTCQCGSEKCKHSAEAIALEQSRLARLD
The assay can be described thus: EHMT2 enzyme assay on histone peptide substrate (EHMT2 PEP). Type of assay: biochemical. The following applies: Table III; read-out: EHMT2 PEP (IC50 μM). An outline of the steps:
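Radiometric methyltransferase assay: 0.031 nM EHMT2 913-1193 preincubated 30 min with compound (10-point 3-fold series, top final 50 μM, 2% DMSO) in 20 mM Bicine pH 7.5, 1 mM TCEP. Biotinylated histone peptide methylated with ^3H-SAM for 60 min at room temperature, quenched with unlabeled SAM, captured on streptavidin Flashplates and counted.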
For the compound `COc1cnc(Nc2ccnc3[nH]ccc23)cc1OCCCN1CCCC1` [Compound 335, N-(5-methoxy-4-(3-(pyrrolidin-1-yl)propoxy)pyridine-2-yl)-1H-pyrrolo[2,3-b]pyridin-4-amine], the half-maximal inhibitory concentration (IC50) was 0.1 to 1 µM. For `COc1ccc(Nc2ccc3ncc(C)n3n2)cc1OCCCN1CCCC1` [Compound 347], the half-maximal inhibitory concentration (IC50) lay in the range of 1 to 10 µM.

On to `CNc1ccnc(Nc2ccc(OC)c(OCCCN3CC(F)C3)c2)n1` [Compound 354], for which the concentration for half-maximal inhibition (IC50) was 1 to 10 µM. `CNc1cc(Nc2cc(OCCCN3CCCC3)c(OC)cn2)cnn1` [Compound 323, N^5-(5-methoxy-4-(3-(pyrrolidin-1-yl)propoxy)pyridin-2-yl)-N^3-methylpyridazine-3,5-diamine]: the half-maximal inhibitory concentration (IC50) was > 10 µM. The same measure, in the same setting: under `CNc1nc(Nc2ccc(OC)c(OCCCN3CCCC3)c2)nc2c1CCC2` [Compound 328, N^2-(4-methoxy-3-(3-(pyrrolidin-1-yl)propoxy)phenyl)-N^4-methyl-6,7-dihydro-5H-cyclopenta[d]pyrimidine-2,4-diamine] stands 0.1 to 1 µM; under `COc1ccc(Nc2ccnc(NCC3CCN(C(C)=O)CC3)n2)cc1OCCCN1CCCC1` [Compound 340], 0.1 to 1 µM. On the same count and under the same terms, under `CNc1cc(Nc2cc(OCCCN3CCCC3)c(OC)cn2)nc(C)n1` [Compound 325, N^4-(5-methoxy-4-(3-(pyrrolidin-1-yl)propoxy)pyridin-2-yl)-N^6,2-dimethylpyrimidine-4,6-diamine] stands 1 to 10 µM; under `COc1ccc(Nc2cccc3ncnn23)cc1OCCCN1CCCC1` [Compound 344], > 10 µM. Same read-out and setting: to `COc1ccc(Nc2nccc(NCC3CCOCC3)n2)cc1OC1CCC2(CC1)CN(C)C2` [Compound 260, N^2-(4-methoxy-3-((2-methyl-2-azaspiro[3.5]nonan-7-yl)oxy)phenyl)-N^4-((tetrahydro-2H-pyran-4-yl)methyl)pyrimidine-2,4-diamine] belongs > 10 µM; to `COc1ccc(Nc2cccc3cn(C)nc23)cc1OCCCN1CCCC1` [Compound 346], > 10 µM. Regarding `COc1ccc(Nc2ccc3cnn(C)c3c2)cc1OCCCN1CCCC1` [Compound 341], the half-maximal inhibitory concentration (IC50) is > 10 µM. Same read-out and setting: to `COc1ccc(Nc2ccc3nn(C)cc3c2)cc1OCCCN1CCCC1` [Compound 345] belongs > 10 µM; to `COc1ccc(Nc2ncc3ncn(C)c3n2)cc1OCCCN1CCCC1` [Compound 343], > 10 µM. The same measure, in the same setting: under `COc1ccc(Nc2nccc(NCC3CCOCC3)n2)cc1NCCCN1CCCC1` [Compound 350] stands 0.1 to 1 µM. Take `CNc1cc(Nc2cc(OCCCN3CCCC3)c(OC)cn2)ncn1` [Compound 324, N^4-(5-methoxy-4-(3-(pyrrolidin-1-yl)propoxy)pyridin-2-yl)-N^6-methylpyrimidine-4,6-diamine]: the IC50 was in the range of 1 to 10 µM. Consider `COc1ccc(Nc2ccc3ncn(C)c3n2)cc1OCCCN1CCCC1` [Compound 342], for which the half-maximal inhibitory concentration (IC50) is > 10 µM. For the compound `CCn1nc(Nc2nccc3[nH]ccc23)cc1COCCN1CCCC1` [Compound 333], the IC50 was 1 to 10 µM.

Turning to `CNCc1cnc(Nc2ccc(OC)c(OCCCN3CCCC3)c2)nc1` [Compound 339], the 50% inhibitory concentration (IC50) was > 10 µM.

With `CNc1cc(C)nc(Nc2ccc(OC)c(O[C@H]3C[C@H](N(C)C)C3)c2)n1` (single isomer, unassigned) [Compound 329, N^2-(3-((1r,3r)-3-(dimethylamino)cyclobutoxy)-4-methoxyphenyl)-N^4,6-dimethylpyrimidine-2,4-diamine], the IC50 was in the range of 1 to 10 µM. Same read-out and setting: to `COc1ccc(NCCCN2CCCC2)cc1Nc1nccc(NCC2CCOCC2)n1` [Compound 352] belongs > 10 µM; to `CNc1cnnc(Nc2cc(OCCCN3CCCC3)c(OC)cn2)c1` [Compound 322, N^3-(5-methoxy-4-(3-(pyrrolidin-1-yl)propoxy)pyridin-2-yl)-N^5-methylpyridazine-3,5-diamine], < 0.1 µM; to `COc1cnc(Nc2nc(C)nc3[nH]ccc23)cc1OCCCN1CCCC1` [Compound 326, N-(5-methoxy-4-(3-(pyrrolidin-1-yl)propoxy)pyridin-2-yl)-2-methyl-7H-pyrrolo[2,3-d]pyrimidin-4-amine], 0.1 to 1 µM. On the same count and under the same terms, under `CNc1cc(C)nc(Nc2ccc(OC)c(OC[C@H]3C[C@H](N(C)C)C3)c2)n1` [Compound 330] stands > 10 µM; under `CNc1ccnc(Nc2ccc(OC)c(OCCCN3CC[C@@H](F)C3)c2)n1` [Compound 353], 0.1 to 1 µM.

With `COc1ccc(Nc2ccc3cnn(C)c3n2)cc1OCCCN1CCCC1` [Compound 257, N-(4-methoxy-3-(3-(pyrrolidin-1-yl)propoxy)phenyl)-1-methyl-1H-pyrazolo[3,4-b]pyridin-6-amine], the 50% inhibitory concentration (IC50) was > 10 µM. Still for that read-out and setting: to `COc1ccc(Nc2nccc(-c3cnn(C)c3)n2)cc1OCCCN1CCCC1` [Compound 348] belongs > 10 µM; to `COc1cnc(Nc2cc(C)nc3[nH]ccc23)cc1OCCCN1CCCC1` [Compound 336, N-(5-methoxy-4-(3-(pyrrolidin-1-yl)propoxy)pyridin-2-yl)-6-methyl-1H-pyrrolo[2,3-b]pyridin-4-amine], 0.1 to 1 µM; to `COc1ccc(OCCCN2CCCC2)cc1Nc1nccc(NCC2CCOCC2)n1` [Compound 351], > 10 µM. On the same count and under the same terms, under `COc1ccc(Nc2nc(C)c(F)c(NC(C)C)n2)cc1OCCCN1CCCC1` [Compound 337] stands 1 to 10 µM.

Still in this assay, the particulars now being: Table VI; read-out: EHMT2 PEP IC50.
Regarding `CNc1cc(C)nc(Nc2cc(OCCCN3CCCC3)c3oncc3c2)n1` [Compound 793], the IC50 is > 10 µM. The same measure, in the same setting: under `CNc1cc(CC2CCOCC2)c2cc(OC)c(OCCCN3CCCC3)cc2n1` [Compound 823] stands < 0.1 µM; under `COc1cc2c(C3CCOCC3)cc(N3CCCCC3)nc2cc1OCCCN1CCCC1` [Compound 824], 0.1 to 1 µM. Still for that read-out and setting: under `COc1cc2c(C3CCN(C)CC3)cc(C#N)nc2cc1OCCCN1CCCC1` [Compound 790] stands 0.1 to 1 µM; under `CNc1cc(C)nc(Nc2ccc(OC)c(C#CC3CCN(C)C3)c2)n1` (centres unmarked) [Compound 847], 0.1 to 1 µM; under `COc1cnc(Nc2nccc3nccn23)cc1OC[C@@H]1CCNC1` [Compound 801], > 10 µM. The same measure, in the same setting: under `COc1cc(NC2CCOCC2)ncc1OCC1CCNC1` (centres unmarked) [Compound 806] stands 1 to 10 µM. On to `COc1cc2c(C3CCN([C@@H]4CCOC4)CC3)cc(C)nc2cc1OCCCN1CCCC1` [Compound 863], for which the IC50 is < 0.1 µM. Still for that read-out and setting: to `CNc1cc(C)c2cc(OC)c(C#CCN3CCCC3)cc2n1` [Compound 859] belongs < 0.1 µM.

On to `COc1cc2c(C3CCOCC3)cc(N(C)C)nc2cc1OCCCN1CCCC1` [Compound 825], for which the half-inhibitory concentration (IC50) fell in the range of 0.1 to 1 µM. Still for that read-out and setting: to `COc1cc2c(C)cc(N3CCCCC3)nc2cc1OCCCN1CCCC1` [Compound 810] belongs 0.1 to 1 µM; to `CNc1cc(C)nc(Nc2ccc(OC)c(C#CCN3CCN(C)CC3)c2)n1` [Compound 860], > 10 µM. For the compound `COc1cnc(Nc2nn(C)c3cnccc23)cc1OCCCN1CCCC1` [Compound 795], the IC50 was > 10 µM.

On to `COc1ccc(Nc2nc(C)cc(NC(C)C)n2)cc1OC[C@@H]1CCNC1` [Compound 800], for which the IC50 was < 0.1 µM. Consider `CNc1cc(C2CCCCC2)c2cc(OC)c(OCCCN3CCCC3)cc2n1` [Compound 816], for which the IC50 is < 0.1 µM. As for `CNc1cc(C2CCN(C(C)=O)CC2)c2cc(OC)c(OCCCN3CCCC3)cc2n1` [Compound 809], the IC50 was < 0.1 µM. Turning to `COc1cc(N(C)C2CCOCC2)ncc1OCC1CCNC1` (centres unmarked) [Compound 808], the half-inhibitory concentration (IC50) is > 10 µM. Same read-out and setting: under `CNc1cc(C)nc(Nc2cnc(OC)c(OC[C@@H]3CCN(C4CCC4)C3)c2)n1` [Compound 798] stands 0.1 to 1 µM. Same read-out and setting: under `CNc1cc(C(C)C)c2cc(OC)c(OCCCN3CCCC3)cc2n1` [Compound 817] stands < 0.1 µM; under `CNc1cc(C2CCOCC2)c2cc(OC)c(OC[C@@H]3CCN(C)C3)cc2n1` [Compound 803], 0.1 to 1 µM. Consider `CNc1cc(C2CCN(CCOC)CC2)c2cc(OC)c(OCCCN3CCCC3)cc2n1` [Compound 839], for which the IC50 is < 0.1 µM. For `COc1ccc(Nc2cc(C)n(C)n2)cc1OCCCN1CCCC1` [Compound 797], the IC50 was > 10 µM. With `CNc1cc(C2CCN(CCC(F)(F)F)CC2)c2cc(OC)c(OCCCN3CCCC3)cc2n1` [Compound 832], the IC50 is < 0.1 µM. The same measure, in the same setting: to `CNC(=O)c1cc(C)nc(Nc2ccc(OC)c(OCCCN3CCCC3)c2)n1` [Compound 854] belongs > 10 µM. On the same count and under the same terms, under `CNc1cc(C)nc(Nc2cc(OCCCN3CCCC3)c3nc(C)cn3c2)n1` [Compound 616] stands 1 to 10 µM; under `COc1ccc(Nc2cc(C)[nH]n2)cc1OCCCN1CCCC1` [Compound 796], > 10 µM; under `CNc1cc(C)nc(Nc2ccc(OC)c(CN[C@H]3CCNC3)c2)n1` [Compound 813], 1 to 10 µM. Same read-out and setting: under `COc1cc2c(C3CCN(C(C)=O)CC3)cc(C)nc2cc1OCCCN1CCCC1` [Compound 834] stands 0.1 to 1 µM; under `CNc1cc2nccn2c(Nc2cc(OCCCN3CCCC3)c(OC)cn2)n1` [Compound 611], 1 to 10 µM. `COc1cc2c(C3CCOCC3)cc(=O)[nH]c2cc1OCCCN1CCCC1` [Compound 822]: the half-maximal inhibitory concentration (IC50) is > 10 µM. In the case of `CNc1cc(C)nc(Nc2ccc(OC)c(C#CC3CCCN3C)c2)n1` (centres unmarked) [Compound 848], the half-inhibitory concentration (IC50) was < 0.1 µM. The same measure, in the same setting: under `COc1cc2c(C)nc(N3CCCCC3)nc2cc1OCCCN1CCCC1` [Compound 811] stands > 10 µM.

Consider `COc1ccc(Nc2nn(C)c3cnccc23)cc1OCCCN1CCCC1` [Compound 794], for which the IC50 is > 10 µM.

In general, IC50 refers to the concentration at which inhibition is half-maximal.
